From US8546377B2 (AbbVie Inc., priority 2009, dated 2013)
Where two headings read alike, the source gives them in different places.

Experiments:
5HT2C receptors = target: T1, 5HT2C receptors (Homo sapiens, UniProt P28335); assay: Human 5-HT2C functional assay in CHO-K1 cells (calcium flux, FLIPR); type: cell-based; parameters: expressed in transfected cells; host or cells: CHO-K1 cells
T1 sequence (P28335 33-458): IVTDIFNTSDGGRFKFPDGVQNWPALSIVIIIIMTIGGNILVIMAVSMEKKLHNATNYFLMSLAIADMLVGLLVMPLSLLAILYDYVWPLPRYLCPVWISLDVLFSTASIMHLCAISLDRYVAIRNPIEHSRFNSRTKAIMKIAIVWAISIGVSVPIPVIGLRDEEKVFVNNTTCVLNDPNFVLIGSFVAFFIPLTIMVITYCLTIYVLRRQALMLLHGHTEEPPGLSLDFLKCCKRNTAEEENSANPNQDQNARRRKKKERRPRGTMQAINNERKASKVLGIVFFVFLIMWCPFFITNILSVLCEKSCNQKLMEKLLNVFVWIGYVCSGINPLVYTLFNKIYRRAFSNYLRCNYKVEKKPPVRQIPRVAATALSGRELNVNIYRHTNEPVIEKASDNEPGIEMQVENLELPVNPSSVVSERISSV
Experimental: (§1) (iii) Human 5-HT2C and 5-HT2B Functional Assay in CHO-K1 Cells
(§2) CHO-K1 cells over-expressing 5HT2C or 5HT2B receptors were grown in 1272 cm^2 flasks to 70-80% confluency in UltraCHO media supplemented with 1% dialyzed fetal bovine serum (FBS), 250 μg/mL zeocin, 100 U/mL penicillin/streptomycin, and 400 μg/mL geneticin. The cells were dissociated from the flasks using 0.05% trypsin, resuspended in freezing media and stored in liquid nitrogen until use. Calcium flux experiments were done using frozen cells. The cells were diluted in media containing 1% dialyzed FBS and 100 U/mL penicillin/streptomycin and plated into 384-well poly-D-Lysine coated plates (15,000 cells/well). Then the plates were incubated overnight in a cell incubator at 37° C., 5% CO2. On the next day, the growth media was replaced with media without FBS and further incubated overnight. On day three, the changes in intracellular Ca^2+ were determined using calcium sensitive fluorescent dye, Ca4 (MDS Analytical Technologies, Sunnyvale, Calif.) by loading 15 μL of diluted dye with 2.5 mM probenecid into the cells containing media and incubated at room temperature for 60 minutes in dark.
(§3) Fluorescence measurements were read at 25° C. at an excitation wavelength of 480 nm and an emission wavelength of 530 nm in FLIPR (MDS). Baseline fluorescence was measured for the first 10 seconds and then 15 μL of 4× concentrations of serotonin/test compounds was added to the cell plate. The fluorescence intensity was captured every second for the first 1 minute followed by every 5 seconds for an additional 2 minutes. The increase in fluorescent response was determined and was normalized to the response of serotonin. The concentration response of compounds was done from a starting concentration of 10 μM, 1:10 dilution across 6 wells with a final dimethyl sulfoxide concentration of 0.2% and was fitted using a 4-parameter logistic equation. The concentration at which a compound exerts half its maximal effect was named as ‘effective concentration 50’ or ‘EC50’.
(§4) Emax is the maximum functional response or efficacy expressed as a percentage relative to the effect of serotonin.

5HT2B receptors = target: T2, 5HT2B receptors (Homo sapiens, UniProt P41595); assay: Human 5-HT2B functional assay in CHO-K1 cells (calcium flux, FLIPR); type: cell-based
T2 construct: expressed in transfected cells; host or cells: CHO-K1 cells
Experimental: as §1, §2, §3, §4

[1] = CHO-K1 cells over-expressing 5HT2C, calcium flux, read-out: EC50 (μM), 5-HT2c Agonist Activity
[2] = CHO-K1 cells, percentage relative to the effect of serotonin, read-out: Emax (%), 5-HT2c Agonist Activity
[3] = CHO-K1 cells over-expressing 5HT2B, calcium flux, read-out: EC50 (μM), 5-HT2B Agonist Activity
[4] = CHO-K1, read-out: Emax (%), 5-HT2c Agonist Activity, CHO-K1 cells, percentage relative to the effect of serotonin
[5] = CHO-K1 cells, percentage relative to the effect of serotonin, read-out: Emax (%), 5-HT2B Agonist Activity
[6] = CHO-K1, read-out: Emax (%), 5-HT2B Agonist Activity

T2 sequence (P41595 whole entry): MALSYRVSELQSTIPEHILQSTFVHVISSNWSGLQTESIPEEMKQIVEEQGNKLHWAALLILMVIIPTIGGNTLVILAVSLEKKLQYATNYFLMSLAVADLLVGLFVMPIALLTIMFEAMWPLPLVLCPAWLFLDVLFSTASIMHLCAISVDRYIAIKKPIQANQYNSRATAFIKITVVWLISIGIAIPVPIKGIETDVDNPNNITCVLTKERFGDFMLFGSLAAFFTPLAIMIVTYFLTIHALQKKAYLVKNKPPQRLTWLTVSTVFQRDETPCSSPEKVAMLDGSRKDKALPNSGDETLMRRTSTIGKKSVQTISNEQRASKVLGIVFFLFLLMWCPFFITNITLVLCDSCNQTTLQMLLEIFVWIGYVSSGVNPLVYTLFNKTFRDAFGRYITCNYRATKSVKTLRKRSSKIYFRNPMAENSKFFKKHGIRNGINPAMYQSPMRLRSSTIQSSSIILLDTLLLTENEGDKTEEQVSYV

| EC50 (5HT2C receptors; [1]) [µM] | Emax (5HT2C receptors; [2]) [%] | EC50 (5HT2B receptors; [3]) [µM] | Emax (5HT2B receptors; [5]) [%] | Emax (5HT2C receptors; CHO-K1, read-out: Emax (%), 5-HT2c Agonist Activity) [%] | SMILES | EC50 (5HT2C receptors) [µM] | Emax (5HT2C receptors; [4]) [%] | EC50 (5HT2B receptors) [µM] | Emax (5HT2B receptors; [6]) [%] |
| --- | --- | --- | --- | --- | --- | --- | --- | --- | --- |
| 0.06 | > 120 | > 10 | – | – | O=C1CC2CNCCN2c2cc(-c3ccccc3F)ccc2N1 (centres unmarked) [Example 70, 10-(2-fluorophenyl)-1,2,3,4,4a,5-hexahydropyrazino[1,2-a][1,5]benzodiazepin-6(7H)-one] | – | – | – | – |
| 0.6 | 90 | > 10 | – | – | CCN1CCC2CN(C)CCN2c2ccc(Cl)cc21 (centres unmarked) [Example 82, 9-chloro-7-ethyl-3-methyl-1,2,3,4,4a,5,6,7-octahydropyrazino[1,2-a][1,5]benzodiazepine] | – | – | – | – |
| 0.03 | > 120 | > 10 | – | – | O=C1CC2CNCCN2c2cc(Cc3ccccc3)ccc2N1 (centres unmarked) [Example 185, 10-benzyl-1,2,3,4,4a,5-hexahydropyrazino[1,2-a][1,5]benzodiazepin-6(7H)-one] | – | – | – | – |
| – | – | – | – | – | c1cncc(-c2cccc3c2OCC[C@H]2CNCCN32)c1 [Example 248, (4aS)-8-(pyridin-3-yl)-2,3,4,4a,5,6-hexahydro-1H-pyrazino[2,1-d][1,5]benzoxazepine] | 0.0007 | 85 | > 10 | – |
| 0.07 | > 120 | 1 | 20 | – | C[C@H](Oc1ccc2c(c1)N1CCNCC1CC(=O)N2)c1ccccc1F (stereo partly drawn) [Example 162, 10-[(1S)-1-(2-fluorophenyl)ethoxy]-1,2,3,4,4a,5-hexahydropyrazino[1,2-a][1,5]benzodiazepin-6(7H)-one] | – | – | – | – |
| – | – | – | – | – | Clc1cccc2c1OCC[C@H]1CNCCN21 [Example 138, (4aS)-8-chloro-2,3,4,4a,5,6-hexahydro-1H-pyrazino[2,1-d][1,5]benzoxazepine] | 0.0007 | > 120 | > 10 | – |
| – | – | – | – | – | CN1CCN2c3cc(Cl)ccc3NC(=O)C[C@H]2C1 [Example 84, (4aS)-10-chloro-3-methyl-1,2,3,4,4a,5-hexahydropyrazino[1,2-a][1,5]benzodiazepin-6(7H)-one] | 0.067 | 90 | > 10 | – |
| 0.01 | > 120 | > 10 | – | – | CCc1cccc(-c2ccc3c(c2)N2CCNCC2CC(=O)N3)c1 (centres unmarked) [Example 91, 10-(3-ethylphenyl)-1,2,3,4,4a,5-hexahydropyrazino[1,2-a][1,5]-benzodiazepin-6(7H)-one] | – | – | – | – |
| 0.04 | – | 1 | – | 90 | FCCN1CCN2c3ccccc3OCC[C@H]2C1 [Example 240, (4aS)-3-(2-fluoroethyl)-2,3,4,4a,5,6-hexahydro-1H-pyrazino[2,1-d][1,5]benzoxazepine] | – | – | – | 10 |
| 0.02 | 100 | > 10 | – | – | c1ccc(-c2cccc3c2OCC[C@H]2CNCCN32)cc1 [Example 223, (4aS)-8-phenyl-2,3,4,4a,5,6-hexahydro-1H-pyrazino[2,1-d][1,5]benzoxazepine] | – | – | – | – |
| – | – | – | – | – | c1cncc(-c2ccc3c(c2)N2CCNC[C@@H]2CCO3)c1 [Example 206, (4aS)-10-(pyridin-3-yl)-2,3,4,4a,5,6-hexahydro-1H-pyrazino[2,1-d][1,5]benzoxazepine] | 0.07 | > 120 | > 10 | – |
| 0.01 | 110 | 0.1 | 20 | – | C[C@@H](Oc1ccc2c(c1)N1CCNCC1CC(=O)N2)c1ccccc1 (stereo partly drawn) [Example 153, 10-[(1R)-1-phenylethoxy]-1,2,3,4,4a,5-hexahydropyrazino[1,2-a][1,5]benzodiazepin-6(7H)-one] | – | – | – | – |
| 0.005 | > 120 | 1 | 15 | – | Oc1ccc(-c2ccc3c(c2)N2CCNC[C@@H]2CCO3)cc1 [Example 202, 4-[(4aS)-2,3,4,4a,5,6-hexahydro-1H-pyrazino[2,1-d][1,5]benzoxazepin-10-yl]phenol] | – | – | – | – |
| 0.07 | > 120 | > 10 | – | – | C[C@@H](Cc1ccccc1)Oc1ccc2c(c1)N1CCNC[C@@H]1CC(=O)N2 [Example 163, (4aS)-10-{[(2S)-1-phenylpropan-2-yl]oxy}-1,2,3,4,4a,5-hexahydropyrazino[1,2-a][1,5]benzodiazepin-6(7H)-one] | – | – | – | – |
| – | – | – | – | – | Fc1ccc2c(c1)OCC[C@@H]1CNCCN21 [Example 256, (4aR)-9-fluoro-2,3,4,4a,5,6-hexahydro-1H-pyrazino[2,1-d][1,5]benzoxazepine] | 0.001 | 90 | 0.06 | 80 |
| 0.09 | 110 | > 10 | – | – | COc1ccccc1-c1ccc2c(c1)N1CCNCC1CC(=O)N2 (centres unmarked) [Example 63, 10-(2-methoxyphenyl)-1,2,3,4,4a,5-hexahydropyrazino[1,2-a][1,5]benzodiazepin-6(7H)-one] | – | – | – | – |
| 0.0059 | > 120 | 0.35 | 77 | – | O=C1CC2CNCCN2c2cc(OCc3cccc(F)c3)ccc2N1 (centres unmarked) [Example 156, 10-[(3-fluorobenzyl)oxy]-1,2,3,4,4a,5-hexahydropyrazino[1,2-a][1,5]benzodiazepin-6(7H)-one] | – | – | – | – |
| 0.02 | > 120 | > 10 | – | – | O=C1CC2CNCCN2c2cc(-c3cccc(OCc4ccccc4)c3)ccc2N1 (centres unmarked) [Example 95, 10-[3-(benzyloxy)phenyl]-1,2,3,4,4a,5-hexahydropyrazino[1,2-a][1,5]benzodiazepin-6(7H)-one] | – | – | – | – |
| – | – | – | – | – | Cc1cc(Cl)cc2c1OCC[C@H]1CNCCN21 [Example 227, (4aS)-10-chloro-8-methyl-2,3,4,4a,5,6-hexahydro-1H-pyrazino[2,1-d][1,5]benzoxazepine] | 0.008 | 85 | 0.05 | 20 |
| 0.08 | > 120 | > 10 | – | – | O=C1CC2CNCCN2c2cc(/C=C/c3ccccc3C(F)(F)F)ccc2N1 (centres unmarked) [Example 142, 10-{(E)-2-[2-(trifluoromethyl)phenyl]vinyl}-1,2,3,4,4a,5-hexahydropyrazino[1,2-a][1,5]benzodiazepin-6(7H)-one] | – | – | – | – |
| 0.002 | > 120 | > 10 | – | – | O=C1C[C@H]2CNCCN2c2cc(OCCc3ccccc3Cl)ccc2N1 [Example 172, (4aS)-10-[2-(2-chlorophenyl)ethoxy]-1,2,3,4,4a,5-hexahydropyrazino[1,2-a][1,5]benzodiazepin-6(7H)-one] | – | – | – | – |
| 0.00402 | > 120 | > 10 | – | – | C[C@H](Cc1ccccc1)Oc1ccc2c(c1)N1CCNCC1CC(=O)N2 (stereo partly drawn) [Example 159, 10-{[(2R)-1-phenylpropan-2-yl]oxy}-1,2,3,4,4a,5-hexahydropyrazino[1,2-a][1,5]benzodiazepin-6(7H)-one] | – | – | – | – |
| 0.07 | > 120 | > 10 | – | – | Cc1cccc(-c2ccc3c(c2)N2CCNCC2CC(=O)N3)c1 (centres unmarked) [Example 89, 10-(3-methylphenyl)-1,2,3,4,4a,5-hexahydropyrazino[1,2-a][1,5]benzodiazepin-6(7H)-one] | – | – | – | – |
| 0.01 | 105 | 0.3 | 10 | – | CC(O)c1ccc(-c2cccc3c2OCC[C@H]2CNCCN32)cc1 (stereo partly drawn) [Example 234, 1-{4-[(4aS)-2,3,4,4a,5,6-hexahydro-1H-pyrazino[2,1-d][1,5]benzoxazepin-8-yl]phenyl}ethanol] | – | – | – | – |

| SMILES | EC50 (5HT2C receptors; [1]) [µM] | Emax (5HT2C receptors; [2]) [%] | EC50 (5HT2B receptors; [3]) [µM] | Emax (5HT2B receptors; [5]) [%] | Emax (5HT2C receptors; CHO-K1, read-out: Emax (%), 5-HT2c Agonist Activity) [%] | EC50 (5HT2C receptors) [µM] | Emax (5HT2C receptors; [4]) [%] | EC50 (5HT2B receptors) [µM] | Emax (5HT2B receptors; [6]) [%] |
| --- | --- | --- | --- | --- | --- | --- | --- | --- | --- |
| CN1C(=O)CC2CNCCN2c2ccc(Cl)cc21 (centres unmarked) [Example 80, 9-chloro-7-methyl-1,2,3,4,4a,5-hexahydropyrazino[1,2-a][1,5]benzodiazepin-6(7H)-one] | 0.6 | – | > 10 | – | – | – | 100 | – | – |
